Source: ChEMBL document CHEMBL1138365, “Application of 3D-QSAR for identification of descriptors defining bioactivity of antimicrobial peptides” (2007)
Values after ≈ are worked out from the molar mass of the structure shown. Starred links: 1 amine or outer side, 2 acyl side, 3 side chain; linkers in the order of their positions; H or OH if unused. Non-standard residues stand in square brackets, D forms with d. Residues, ends and D or L forms follow the SMILES beside them. ξ: configuration not given here. *: point of attachment. Pro(3ξ,4ξ-(CH2)4) = O=C(O)[C@H]1NCC2CCCCC21; Oic = O=C(O)[C@@H]1C[C@@H]2CCCC[C@@H]2N1; Phe(4-F) = N[C@@H](Cc1ccc(F)cc1)C(=O)O; Ethylenediamine = C(CN[*:2])N[*:1]; Tic = O=C(O)[C@@H]1Cc2ccccc2CN1; dTic = O=C(O)[C@H]1Cc2ccccc2CN1; ξTic = O=C(O)C1Cc2ccccc2CN1; Orn = NCCC[C@H](N)C(=O)O; NH(CH2)3NH2 = NCCCN*; Ahx = NCCCCCC(=O)O; GABA = NCCCC(=O)O; βAla = NCCC(=O)O

Columns and labels:
[1] = test system: Mycolicibacterium fortuitum; test: Antibacterial activity against Mycobacterium ranae; format: functional
Staphylococcus aureus = test: Antibacterial activity against Staphylococcus aureus; format: functional

| Structure (SMILES) | MIC [1] [µM] | MIC (Staphylococcus aureus) [µM] |
| --- | --- | --- |
| CC(=O)NCC(=O)N[C@@H](Cc1ccccc1)C(=O)N1Cc2ccccc2C[C@H]1C(=O)N1[C@H](C(=O)NCC(=O)N[C@@H](CCCCN)C(=O)N2Cc3ccccc3C[C@H]2C(=O)N2[C@H](C(=O)NCC(=O)N[C@@H](Cc3ccccc3)C(=O)N3Cc4ccccc4C[C@H]3C(=O)N3[C@H](C(=O)NCC(=O)N[C@@H](CCCCN)C(=O)N4Cc5ccccc5C[C@H]4C(=O)N[C@@H](CCCCN)C(=O)N[C@@H](CCCCN)C(=O)N[C@@H](CCCCN)C(=O)N[C@@H](CCCCN)C(=O)NCCCN)C[C@@H]4CCCC[C@@H]43)C[C@@H]3CCCC[C@@H]32)C[C@@H]2CCCC[C@@H]21 (Ac-GF[Tic][Oic]GK[Tic][Oic]GF[Tic][Oic]GK[Tic]KKKK-{NH(CH2)3NH2}) | 10 (≈ 25 µg/mL) | 10 (≈ 25 µg/mL) |
| CC(=O)NCCCCCC(=O)N[C@@H](Cc1ccccc1)C(=O)N1Cc2ccccc2C[C@H]1C(=O)N1CC2CCCCC2[C@H]1C(=O)NCCCCCC(=O)N[C@@H](CCCCN)C(=O)N1Cc2ccccc2C[C@H]1C(=O)N1CC2CCCCC2[C@H]1C(=O)NCCCCCC(=O)N[C@@H](Cc1ccccc1)C(=O)N1Cc2ccccc2C[C@H]1C(=O)N1CC2CCCCC2[C@H]1C(=O)NCCCCCC(=O)N[C@@H](CCCCN)C(=O)N1Cc2ccccc2C[C@H]1C(=O)N[C@@H](CCCCN)C(=O)N[C@@H](CCCCN)C(=O)N[C@@H](CCCCN)C(=O)N[C@@H](CCCCN)C(N)=O (stereo partly specified) (Ac-[Ahx]F[Tic][Pro(3ξ,4ξ-(CH2)4)][Ahx]K[Tic][Pro(3ξ,4ξ-(CH2)4)][Ahx]F[Tic][Pro(3ξ,4ξ-(CH2)4)][Ahx]K[Tic]KKKK-NH2) | 3 (≈ 8 µg/mL) | 10 (≈ 26.7 µg/mL) |
| CC(=O)NCC(=O)N[C@@H](Cc1ccccc1)C(=O)N1Cc2ccccc2C[C@H]1C(=O)N1CC2CCCCC2[C@H]1C(=O)NCC(=O)N[C@@H](CCCCN)C(=O)N1Cc2ccccc2C[C@H]1C(=O)N1CC2CCCCC2[C@H]1C(=O)NCC(=O)N[C@@H](Cc1ccccc1)C(=O)N1Cc2ccccc2C[C@H]1C(=O)N1CC2CCCCC2[C@H]1C(=O)NCC(=O)N[C@@H](CCCCN)C(=O)N1Cc2ccccc2C[C@H]1C(=O)N[C@@H](CCCCN)C(=O)N[C@@H](CCCCN)C(=O)N[C@@H](CCCCN)C(=O)N[C@@H](CCCCN)C(=O)N[C@@H](CCCCN)C(N)=O (stereo partly specified) (Ac-GF[Tic][Pro(3ξ,4ξ-(CH2)4)]GK[Tic][Pro(3ξ,4ξ-(CH2)4)]GF[Tic][Pro(3ξ,4ξ-(CH2)4)]GK[Tic]KKKKK-NH2) | 3 (≈ 7.71 µg/mL) | 3 (≈ 7.71 µg/mL) |
| CC(=O)NCCC(=O)N[C@@H](Cc1ccccc1)C(=O)N1Cc2ccccc2C[C@H]1C(=O)N1CC2CCCCC2[C@H]1C(=O)NCCC(=O)N[C@@H](CCCCN)C(=O)N1Cc2ccccc2C[C@H]1C(=O)N1CC2CCCCC2[C@H]1C(=O)NCCC(=O)N[C@@H](Cc1ccccc1)C(=O)N1Cc2ccccc2C[C@@H]1C(=O)N1CC2CCCCC2[C@H]1C(=O)NCCC(=O)N[C@@H](CCCCN)C(=O)N1Cc2ccccc2C[C@H]1C(=O)N[C@@H](CCCCN)C(=O)N[C@@H](CCCCN)C(=O)N[C@@H](CCCCN)C(=O)N[C@@H](CCCCN)C(N)=O (stereo partly specified) (Ac-[βAla]F[Tic][Pro(3ξ,4ξ-(CH2)4)][βAla]K[Tic][Pro(3ξ,4ξ-(CH2)4)][βAla]F[dTic][Pro(3ξ,4ξ-(CH2)4)][βAla]K[Tic]KKKK-NH2) | 1 (≈ 2.5 µg/mL) | 10 (≈ 25 µg/mL) |
| CC(=O)N[C@@H](Cc1ccccc1)C(=O)N1Cc2ccccc2C[C@H]1C(=O)N1CC2CCCCC2[C@H]1C(=O)N[C@@H](CCCCN)C(=O)N1Cc2ccccc2C[C@H]1C(=O)N1CC2CCCCC2[C@H]1C(=O)N[C@@H](Cc1ccccc1)C(=O)N1Cc2ccccc2C[C@H]1C(=O)N1CC2CCCCC2[C@H]1C(=O)N[C@@H](CCCCN)C(=O)N1Cc2ccccc2C[C@H]1C(=O)N[C@@H](CCCCN)C(=O)N[C@@H](CCCCN)C(=O)N[C@@H](CCCCN)C(=O)N[C@@H](CCCCN)C(=O)N[C@@H](CCCCN)C(=O)N[C@@H](CCCCN)C(N)=O (stereo partly specified) (Ac-F[Tic][Pro(3ξ,4ξ-(CH2)4)]K[Tic][Pro(3ξ,4ξ-(CH2)4)]F[Tic][Pro(3ξ,4ξ-(CH2)4)]K[Tic]KKKKKK-NH2) | 3 (≈ 7.41 µg/mL) | 3 (≈ 7.41 µg/mL) |
| CC(=O)NCC(=O)N[C@@H](Cc1ccccc1)C(=O)N1Cc2ccccc2C[C@H]1C(=O)N1[C@H](C(=O)NCC(=O)N[C@@H](CCCCN)C(=O)N2Cc3ccccc3C[C@H]2C(=O)N2[C@H](C(=O)NCC(=O)N[C@@H](Cc3ccccc3)C(=O)N3Cc4ccccc4C[C@H]3C(=O)N3[C@H](C(=O)NCC(=O)N[C@@H](CCCCN)C(=O)N4Cc5ccccc5C[C@H]4C(=O)N[C@@H](CCCCN)C(=O)N[C@@H](CCCCN)C(=O)N[C@@H](CCCCN)C(=O)N[C@@H](CCCCN)C(=O)NCCN)C[C@@H]4CCCC[C@@H]43)C[C@@H]3CCCC[C@@H]32)C[C@@H]2CCCC[C@@H]21 (Ac-GF[Tic][Oic]GK[Tic][Oic]GF[Tic][Oic]GK[Tic]KKKK-Ethylenediamine) | 10 (≈ 24.8 µg/mL) | 3 (≈ 7.45 µg/mL) |
| CC(=O)NCC(=O)N1Cc2ccccc2C[C@H]1C(=O)N1CC2CCCCC2[C@H]1C(=O)N[C@@H](CCCCN)C(=O)N1Cc2ccccc2C[C@H]1C(=O)N1CC2CCCCC2[C@H]1C(=O)NCC(=O)N1Cc2ccccc2CC1C(=O)N1CC2CCCCC2[C@H]1C(=O)N[C@@H](CCCCN)C(=O)N1Cc2ccccc2C[C@H]1C(=O)N[C@@H](CCCCN)C(=O)N[C@@H](CCCCN)C(=O)N[C@@H](CCCCN)C(=O)N[C@@H](CCCCN)C(N)=O (stereo partly specified) (Ac-G[Tic][Pro(3ξ,4ξ-(CH2)4)]K[Tic][Pro(3ξ,4ξ-(CH2)4)]G[ξTic][Pro(3ξ,4ξ-(CH2)4)]K[Tic]KKKK-NH2) | 3 (≈ 6.1 µg/mL) | 10 (≈ 20.3 µg/mL) |
| CC(C)C[C@H](NC(=O)[C@@H](N)CCCCN)C(=O)N1Cc2ccccc2C[C@H]1C(=O)N1CC2CCCCC2[C@H]1C(=O)N[C@@H](CCCCN)C(=O)N1Cc2ccccc2C[C@H]1C(=O)N1CC2CCCCC2[C@H]1C(=O)N[C@@H](Cc1ccccc1)C(=O)N1Cc2ccccc2C[C@H]1C(=O)N1CC2CCCCC2[C@H]1C(=O)N[C@@H](CCCCN)C(=O)N1Cc2ccccc2C[C@H]1C(=O)N1CC2CCCCC2[C@H]1C(=O)N[C@@H](Cc1ccccc1)C(=O)N1Cc2ccccc2C[C@H]1C(=O)N1CC2CCCCC2[C@H]1C(=O)N[C@@H](CCCCN)C(=O)N1Cc2ccccc2C[C@H]1C(=O)N1CC2CCCCC2[C@H]1C(=O)N[C@@H](CCCCN)C(=O)N[C@@H](CCCNC(=N)N)C(N)=O (stereo partly specified) (H-KL[Tic][Pro(3ξ,4ξ-(CH2)4)]K[Tic][Pro(3ξ,4ξ-(CH2)4)]F[Tic][Pro(3ξ,4ξ-(CH2)4)]K[Tic][Pro(3ξ,4ξ-(CH2)4)]F[Tic][Pro(3ξ,4ξ-(CH2)4)]K[Tic][Pro(3ξ,4ξ-(CH2)4)]KR-NH2) | 30 (≈ 92.5 µg/mL) | 10 (≈ 30.8 µg/mL) |
| CC(=O)NCCCC(=O)N[C@@H](Cc1ccccc1)C(=O)N1Cc2ccccc2C[C@H]1C(=O)N1CC2CCCCC2[C@H]1C(=O)NCCCC(=O)N[C@@H](CCCCN)C(=O)N1Cc2ccccc2C[C@H]1C(=O)N1CC2CCCCC2[C@H]1C(=O)NCCCC(=O)N[C@@H](Cc1ccccc1)C(=O)N1Cc2ccccc2C[C@H]1C(=O)N1CC2CCCCC2[C@H]1C(=O)NCCCC(=O)N[C@@H](CCCCN)C(=O)N1Cc2ccccc2C[C@H]1C(=O)N[C@@H](CCCCN)C(=O)N[C@@H](CCCCN)C(=O)N[C@@H](CCCCN)C(=O)N[C@@H](CCCCN)C(N)=O (stereo partly specified) (Ac-[GABA]F[Tic][Pro(3ξ,4ξ-(CH2)4)][GABA]K[Tic][Pro(3ξ,4ξ-(CH2)4)][GABA]F[Tic][Pro(3ξ,4ξ-(CH2)4)][GABA]K[Tic]KKKK-NH2) | 10 (≈ 25.5 µg/mL) | 100 (≈ 255 µg/mL) |
| CC(=O)NCC(=O)N[C@@H](Cc1ccccc1)C(=O)N1Cc2ccccc2C[C@H]1C(=O)N1CC2CCCCC2[C@H]1C(=O)NCC(=O)N[C@@H](CCCCN)C(=O)N1Cc2ccccc2C[C@H]1C(=O)N1CC2CCCCC2[C@H]1C(=O)NCC(=O)N[C@@H](Cc1ccccc1)C(=O)N1Cc2ccccc2C[C@H]1C(=O)N1CC2CCCCC2[C@H]1C(=O)NCC(=O)N[C@@H](CCCCN)C(=O)N1Cc2ccccc2C[C@H]1C(=O)N[C@@H](CCCN)C(=O)N[C@@H](CCCN)C(=O)N[C@@H](CCCN)C(=O)N[C@@H](CCCN)C(N)=O (stereo partly specified) (Ac-GF[Tic][Pro(3ξ,4ξ-(CH2)4)]GK[Tic][Pro(3ξ,4ξ-(CH2)4)]GF[Tic][Pro(3ξ,4ξ-(CH2)4)]GK[Tic][Orn][Orn][Orn][Orn]-NH2) | 10 (≈ 23.8 µg/mL) | 10 (≈ 23.8 µg/mL) |
| CC(=O)NCC(=O)N[C@@H](Cc1ccc(F)cc1)C(=O)N1Cc2ccccc2C[C@H]1C(=O)N1CC2CCCCC2[C@H]1C(=O)NCC(=O)N[C@@H](CCCCN)C(=O)N1Cc2ccccc2C[C@H]1C(=O)N1CC2CCCCC2[C@H]1C(=O)NCC(=O)N[C@@H](Cc1ccc(F)cc1)C(=O)N1Cc2ccccc2C[C@H]1C(=O)N1CC2CCCCC2[C@H]1C(=O)NCC(=O)N[C@@H](CCCCN)C(=O)N1Cc2ccccc2C[C@H]1C(=O)N[C@@H](CCCCN)C(=O)N[C@@H](CCCCN)C(=O)N[C@@H](CCCCN)C(=O)N[C@@H](CCCCN)C(N)=O (stereo partly specified) (Ac-G[Phe(4-F)][Tic][Pro(3ξ,4ξ-(CH2)4)]GK[Tic][Pro(3ξ,4ξ-(CH2)4)]G[Phe(4-F)][Tic][Pro(3ξ,4ξ-(CH2)4)]GK[Tic]KKKK-NH2) | 3 (≈ 7.43 µg/mL) | 10 (≈ 24.8 µg/mL) |
| CC(=O)NCCCC(=O)N[C@@H](Cc1ccccc1)C(=O)N1Cc2ccccc2C[C@H]1C(=O)N1CC2CCCCC2[C@H]1C(=O)NCCCC(=O)N[C@@H](CCCCN)C(=O)N1Cc2ccccc2C[C@H]1C(=O)N1CC2CCCCC2[C@H]1C(=O)NCCCC(=O)N[C@@H](Cc1ccccc1)C(=O)N1Cc2ccccc2C[C@H]1C(=O)N1CC2CCCCC2[C@H]1C(=O)NCCCC(=O)N[C@@H](CCCCN)C(=O)N1Cc2ccccc2C[C@H]1C(=O)N[C@@H](CCCCN)C(=O)N[C@@H](CCCCN)C(=O)N[C@@H](CCCCN)C(=O)N[C@@H](CCCCN)C(=O)N[C@@H](CCCCN)C(N)=O (stereo partly specified) (Ac-[GABA]F[Tic][Pro(3ξ,4ξ-(CH2)4)][GABA]K[Tic][Pro(3ξ,4ξ-(CH2)4)][GABA]F[Tic][Pro(3ξ,4ξ-(CH2)4)][GABA]K[Tic]KKKKK-NH2) | 3 (≈ 8.04 µg/mL) | 30 (≈ 80.4 µg/mL) |
| CC(C)C[C@H](NC(=O)[C@@H](N)CCCCN)C(=O)N1Cc2ccccc2C[C@H]1C(=O)N1CC2CCCCC2[C@H]1C(=O)NCC(=O)N[C@@H](CCCCN)C(=O)N1Cc2ccccc2C[C@H]1C(=O)N1CC2CCCCC2[C@H]1C(=O)NCC(=O)N[C@@H](Cc1ccccc1)C(=O)N1Cc2ccccc2C[C@H]1C(=O)N1CC2CCCCC2[C@H]1C(=O)NCC(=O)N[C@@H](CCCCN)C(=O)N1Cc2ccccc2C[C@H]1C(=O)N[C@@H](CCCCN)C(=O)N[C@@H](CCCCN)C(=O)N[C@@H](CCCCN)C(=O)N[C@@H](CCCCN)C(N)=O (stereo partly specified) (H-KL[Tic][Pro(3ξ,4ξ-(CH2)4)]GK[Tic][Pro(3ξ,4ξ-(CH2)4)]GF[Tic][Pro(3ξ,4ξ-(CH2)4)]GK[Tic]KKKK-NH2) | 3 (≈ 7.31 µg/mL) | 30 (≈ 73.1 µg/mL) |
